*1 amine or outer side, *2 acyl side, *3 side chain or, on linkers, in order; H or OH if unused. Where a SMILES comes first, the peptide text is derived from it. The star is where a group is joined. X1 = O=C(CCCC[C@@H]1SC[C@@H]2NC(=O)N[C@@H]21)NCCCOCCOCCOCCCN*; Suc = O=C(CCC(=O)[*:2])[*:1]
Tests used:
GOPC-1 = GOPC-1 (Homo sapiens, UniProt Q9HD26); assay: Holdup assay, GOPC-1; type: binding
GRIP1-7 = assay: Holdup assay, GRIP1-7; type: binding, human
INADL-1 = assay: Holdup assay, INADL-1; type: binding, human
MAGI1 PDZ 3 = target: T1, MAGI1 PDZ 3 (Homo sapiens, UniProt Q96QZ7); assay: Holdup assay, MAGI1-3; type: binding; conditions: for BI: MAGI1-3
T1 construct: made in house; host or cells: E. coli
T1 sequence (Q96QZ7 643-721 limits assumed): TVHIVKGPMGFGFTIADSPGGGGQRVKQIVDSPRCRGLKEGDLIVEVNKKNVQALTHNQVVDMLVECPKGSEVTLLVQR
Method: (§1) The holdup assay was performed on a Tecan freedom Evo200 robot with 384-well plates in singlicate for the three 11-mer PTEN variants and the 13-mer PTEN peptide as described in [31, 32]. Briefly, prior to interaction assay, 2.5 μL of streptavidin resin was saturated in each well with 20 μL of biotinylated PBM peptides (42 μM) and then washed twice with an excess of free biotin, while the reference resin was incubated only with biotin. Right before the holdup experiment, the PDZ library was spiked with an internal standard of lysozyme. Then, the biotin- or PBM-saturated resin was incubated, each in a distinct well of a 384-well plate, with complete cell lysates diluted so that the concentration of the tag-PDZ present in the crude extract is adjusted at 4 μM. After a sufficient time to reach complex equilibrium (15 min.), a fast and mild filtration step is performed and the tag-PDZ concentrations were measured by capillary electrophoresis instrument (LabChip GXII, PerkinElmer, Massachusets, USA). Standard markers were used to convert migration time into molecular weight on the LabChip software and inappropriate molecular weight markers were corrected or excluded.
(§2) For filtered data, the BI was extracted with the following equation (Eq 1) that estimates the depleted fraction after superimposition of the sample and reference electropherograms: BI=Iref−Ilig/Iref (1) where Iref and Ilig are the intensities of the tag-PDZ peaks measured, for each PDZ domain/PBM peptide interaction pair, in the biotin reference and the PBM electropherograms, respectively.
(§3) BIs were transformed into dissociation constants (KD) using the following formula: KD=([PDZtot]−BI·[PDZtot])·([PBMtot]−BI·[PDZtot])/BI·[PDZtot] (2) where [PDZtot] and [PBMtot] correspond to the total concentrations of the PDZ domain (usually around 4 μM) and the PBM peptide used during the assay. Since the PBMtot concentration in the resin during the holdup assay parameter may differ from one peptide to another and remains unknown, it is impossible to directly convert BI values into KD constants. We systematically determined the KD constants for a subset of PDZ/PBM pairs by competitive FP. […] For each PBM, the average peptide concentration was calculated after outlier rejection based on the absolute distances from the median as compared to three times the standard deviation (3σ rule), with never more than 2 values rejected.

GRIP2-5 = assay: Holdup assay, GRIP2-5; type: binding, human
PARD3 PDZ 3 = target: T2, PARD3 PDZ 3 (Homo sapiens, UniProt Q8TEW0); assay: Holdup assay, PARD3-3; type: binding; conditions: for KD (affinity measured by holdup): PARD3 PDZ 3, singlicate, BI converted to KD, tag-PDZ 4 μM, 15 min, nd: not detected in the holdup assay; for BI: PDZ domain PARD3-3
T2 construct: made in house; host or cells: E. coli
T2 sequence (Q8TEW0 590-677 limits assumed): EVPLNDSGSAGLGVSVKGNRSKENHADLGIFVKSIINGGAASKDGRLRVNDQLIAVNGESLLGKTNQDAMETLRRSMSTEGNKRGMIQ
Method: as §1, §2, §3

MAGI3 PDZ 2 = target: T3, MAGI3 PDZ 2 (Homo sapiens, UniProt Q5TCQ9); assay: Holdup assay, MAGI3-2; type: binding; conditions: for BI: MAGI3-2
T3 construct: made in house; host or cells: E. coli
T3 sequence (Q5TCQ9 410-492 limits assumed): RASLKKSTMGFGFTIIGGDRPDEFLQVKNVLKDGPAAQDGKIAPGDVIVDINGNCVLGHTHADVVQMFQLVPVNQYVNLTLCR
Method: as §1, §2, §3

IL16-4 = assay: Holdup assay, IL16-4; type: binding, human
HTRA3-1 = assay: Holdup assay, HTRA3-1; type: binding, human
MAGI1-5 = MAGI1-5 (Homo sapiens, UniProt Q96QZ7); assay: Holdup assay, MAGI1-5; type: binding
Sequence of MAGI1-5 (Q96QZ7 970-1066): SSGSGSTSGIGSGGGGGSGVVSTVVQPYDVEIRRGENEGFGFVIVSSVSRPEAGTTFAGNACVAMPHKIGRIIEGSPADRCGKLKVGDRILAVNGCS

GRIP2-1 = assay: Holdup assay, GRIP2-1; type: binding, human
GRIP1-3 = assay: Holdup assay, GRIP1-3; type: binding, human
NHERF1 PDZ 1 = target: T4, NHERF1 PDZ 1 (Homo sapiens, UniProt O14745); assay: Holdup assay, NHERF1-1; type: binding; conditions: for BI: PDZ domain NHERF1-1
T4 construct: NHERF1-1 as the first PDZ domain of the NHERF1 protein; made in house; host or cells: E. coli
T4 sequence (O14745 14-94 limits assumed): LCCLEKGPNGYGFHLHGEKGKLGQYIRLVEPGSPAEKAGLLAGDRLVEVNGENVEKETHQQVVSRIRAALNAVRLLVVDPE
Method: as §1, §2, §3

DLG4 PDZ 1 = target: T5, DLG4 PDZ 1 (Homo sapiens, UniProt P78352); assay: Holdup assay, DLG4-1; type: binding; conditions: for BI: DLG4-1
T5 construct: made in house; host or cells: E. coli
T5 sequence (P78352 65-151): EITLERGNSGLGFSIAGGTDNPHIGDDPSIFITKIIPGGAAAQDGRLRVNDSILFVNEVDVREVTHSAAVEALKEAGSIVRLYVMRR
Method: as §1, §2, §3

AHNAK2-1 = assay: Holdup assay, AHNAK2-1; type: binding, human
INADL-4 = assay: Holdup assay, INADL-4; type: binding, human
MAGI2 PDZ 3 = target: T6, MAGI2 PDZ 3 (Homo sapiens, UniProt Q86UL8); assay: Holdup assay, MAGI2-3; type: binding; conditions: for BI: MAGI2-3
T6 construct: made in house; host or cells: E. coli
T6 sequence (Q86UL8 605-683 limits assumed): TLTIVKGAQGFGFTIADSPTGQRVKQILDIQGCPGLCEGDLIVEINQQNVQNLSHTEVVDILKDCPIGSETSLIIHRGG
Method: as §1, §2, §3

LIN7A-1 = assay: Holdup assay, LIN7A-1; type: binding, human
GRIP2-7 = assay: Holdup assay, GRIP2-7; type: binding, human
DVL3-1 = assay: Holdup assay, DVL3-1; type: binding, human
CASK-1 = assay: Holdup assay, CASK-1; type: binding, human

Row | Compound | BI (GOPC-1) | Kd (GOPC-1) | BI (GRIP1-7) | BI (INADL-1) | Kd (MAGI1 PDZ 3) | BI (MAGI1 PDZ 3) | BI (GRIP2-5) | BI (PARD3 PDZ 3) | BI (MAGI3 PDZ 2) | BI (IL16-4) | BI (HTRA3-1) | BI (MAGI1-5) | Kd (MAGI1-5) | BI (GRIP2-1) | BI (GRIP1-3) | BI (DLG4 PDZ 1) | BI (INADL-4) | Kd (MAGI2 PDZ 3) | BI (MAGI2 PDZ 3) | BI (LIN7A-1) | further results
1 | CC[C@H](C)[C@H](NC(=O)[C@H](CCC(N)=O)NC(=O)[C@@H](NC(=O)[C@H](Cc1c[nH]cn1)NC(=O)[C@H](CCC(N)=O)NC(=O)[C@H](CC(=O)O)NC(=O)[C@H](CCC(=O)O)NC(=O)[C@H](CC(=O)O)NC(=O)CCC(=O)NCCCOCCOCCOCCCNC(=O)CCCC[C@@H]1SC[C@@H]2NC(=O)N[C@@H]21)[C@@H](C)O)C(=O)N[C@H](C(=O)N[C@@H](CCCCN)C(=O)N[C@H](C(=O)O)C(C)C)[C@@H](C)O [PTEN_11] | 0.26 | 93.8 µM | -0.03 | 0.022 | 29.6 µM | 0.519 | 0.055 | -0.078 | 0.094 | -0.028 | 0.05 | 0.536 | 27.6 µM | -0.003 | -0.015 | 0.103 | -0.049 | 47.2 µM | 0.407 | -0.017 | LogKD (GRIP1-7): 3.519; LogKD (INADL-1): 3.519; LogKD (GRIP2-5): 3.519; KD (affinity measured by holdup) (PARD3 PDZ 3): 160 µM; LogKD (IL16-4): 3.519; LogKD (HTRA3-1): 3.519; LogKD (GRIP2-1): 3.519; LogKD (GRIP1-3): 3.519; Kd (NHERF1 PDZ 1): 32.8 µM; BI (NHERF1 PDZ 1): 0.494; BI (AHNAK2-1): -0.026; LogKD (AHNAK2-1): 3.519; LogKD (INADL-4): 3.519; LogKD (LIN7A-1): 3.519; BI (GRIP2-7): -0.067; LogKD (GRIP2-7): 3.519; BI (DVL3-1): 0.012; LogKD (DVL3-1): 3.519; BI (CASK-1): -0.049; LogKD (CASK-1): 3.519
2 | CC[C@H](C)[C@H](NC(=O)[C@H](CCC(N)=O)NC(=O)[C@@H](NC(=O)[C@H](Cc1c[nH]cn1)NC(=O)[C@H](CCC(N)=O)NC(=O)[C@H](CC(=O)O)NC(=O)[C@H](CCC(=O)O)NC(=O)[C@H](CC(=O)O)NC(=O)[C@H](Cc1ccccc1)NC(=O)[C@@H]1CCCN1C(=O)CCC(=O)NCCCOCCOCCOCCCNC(=O)CCCC[C@@H]1SC[C@@H]2NC(=O)N[C@@H]21)[C@@H](C)O)C(=O)N[C@H](C(=O)N[C@@H](CCCCN)C(=O)N[C@H](C(=O)O)C(C)C)[C@@H](C)O [PTEN_13] ({X1-Suc}-PFDEDQHTQITKV-OH) | 0.199 | 65.2 µM | 0.015 | 0.086 | 10.4 µM | 0.584 | -0.06 | 0.051 | 0.414 | 0.014 | -0.059 | 0.274 | 42.1 µM | -0.085 | -0.002 | 0.077 | -0.084 | 30.1 µM | 0.342 | -0.019 | KD (affinity measured by holdup) (PARD3 PDZ 3): 96 µM; Kd (MAGI3 PDZ 2): 21.7 µM; BI (GRIP2-7): -0.039; BI (DVL3-1): -0.003; BI (CASK-1): -0.07
3 | CC[C@H](C)[C@H](NC(=O)[C@H](CCC(N)=O)NC(=O)[C@@H](NC(=O)[C@H](Cc1c[nH]cn1)NC(=O)[C@H](CCC(N)=O)NC(=O)[C@H](CC(=O)O)NC(=O)[C@H](CCC(=O)O)NC(=O)[C@H](CC(=O)O)NC(=O)CCC(=O)NCCCOCCOCCOCCCNC(=O)CCCC[C@@H]1SC[C@@H]2NC(=O)N[C@@H]21)[C@@H](C)O)C(=O)N[C@H](C(=O)N[C@@H](CCCNC(=N)N)C(=O)N[C@H](C(=O)O)C(C)C)[C@@H](C)O [PTEN_KR] ({X1-Suc}-DEDQHTQITRV-OH) | 0.45 | 28.4 µM | -0.06 | 0.058 | 14.7 µM | 0.605 | 0.006 | 0.044 | 0.445 | 0.002 | 0.065 | 0.619 | 13.9 µM | -0.04 | -0.034 | 0.229 | -0.04 | 21.2 µM | 0.52 | -0.026 | LogKD (GRIP1-7): 3.655; LogKD (INADL-1): 3.655; LogKD (GRIP2-5): 3.655; KD (affinity measured by holdup) (PARD3 PDZ 3): 56 µM; LogKD (IL16-4): 3.655; LogKD (HTRA3-1): 3.655; LogKD (GRIP2-1): 3.655; LogKD (GRIP1-3): 3.655; Kd (NHERF1 PDZ 1): 3.45 µM; BI (NHERF1 PDZ 1): 0.862; Kd (DLG4 PDZ 1): 81.1 µM; BI (AHNAK2-1): -0.009; LogKD (AHNAK2-1): 3.655; LogKD (INADL-4): 3.655; LogKD (LIN7A-1): 3.655; BI (GRIP2-7): -0.066; LogKD (GRIP2-7): 3.655; BI (DVL3-1): 0.037; LogKD (DVL3-1): 3.655; LogKD (CASK-1): 3.655
4 | CC[C@H](C)[C@H](NC(=O)[C@H](CCC(N)=O)NC(=O)[C@@H](NC(=O)[C@H](Cc1c[nH]cn1)NC(=O)[C@H](CCC(N)=O)NC(=O)[C@H](CC(=O)O)NC(=O)[C@H](CCC(=O)O)NC(=O)[C@H](CC(=O)O)NC(=O)CCC(=O)NCCCOCCOCCOCCCNC(=O)CCCC[C@@H]1SC[C@@H]2NC(=O)N[C@@H]21)[C@@H](C)O)C(=O)N[C@H](C(=O)N[C@@H](CCCCNC(C)=O)C(=O)N[C@H](C(=O)O)C(C)C)[C@@H](C)O [PTEN_Ac] | 0.404 | 38.9 µM | -0.071 | 0.004 | 10 µM | 0.715 | 0.067 | 0.104 | 0.405 | 0.014 | 0.011 | 0.647 | 13.9 µM | -0.038 | 0.02 | 0.15 | -0.106 | 15.3 µM | 0.625 | -0.07 | LogKD (GRIP1-7): 3.605; LogKD (INADL-1): 3.605; LogKD (GRIP2-5): 3.605; Kd (MAGI3 PDZ 2): 38.8 µM; LogKD (IL16-4): 3.605; LogKD (HTRA3-1): 3.605; LogKD (GRIP2-1): 3.605; LogKD (GRIP1-3): 3.605; Kd (NHERF1 PDZ 1): 13.6 µM; BI (NHERF1 PDZ 1): 0.652; BI (AHNAK2-1): 0.034; LogKD (AHNAK2-1): 3.605; LogKD (INADL-4): 3.605; LogKD (LIN7A-1): 3.605; BI (GRIP2-7): -0.07; LogKD (GRIP2-7): 3.605; BI (DVL3-1): -0.002; LogKD (DVL3-1): 3.605; BI (CASK-1): -0.102; LogKD (CASK-1): 3.605

Source: paper PMC7774954, “Interactomic affinity profiling by holdup assay: Acetylation and distal residues impact the PDZome-binding specificity of PTEN phosphatase” (PLoS ONE, 2020)
